Data on 4 substances can be found in paper PMC2994776 (BMC Biochemistry, 2010).

Ends that are not written are not given here.

Assay [1] relates to B9-23 - reactive T-cell clones. The settings on record: type 1 diabetes; cited from earlier work.
The next assay addresses T1, DnaK (Escherichia coli, UniProt P0A6Y8).
T1 construct: made in house
In words: Fluid phase competition binding assay with acrylodan-labeled NR peptide (a-NR). Set-up: species or system bacterial. As to conditions: read-out: Apparent dissociation equilibrium constant (K'd). As for the experimental part:
Determination of dissociation equilibrium constants
Peptide NR was labeled with the environmentally sensitive fluorophore acrylodan as described. […] After reaching equilibrium (~1.5 h), emission spectra were recorded from 400 nm to 600 nm (bandpass 4 nm) with a Perkin-Elmer spectrofluorimeter LS50B equipped with a stirrer and a thermostatically controlled cuvette holder. The excitation wavelength was set at 370 nm (bandpass 4 nm). Measurements were performed in a volume of 800 μl in 25 mM Hepes/KOH, 100 mM KCl, 10 mM MgCl2, pH 7.4 containing 1 mM DTT and 1 mM ADP-Pi at 25°C.
(1) ΔF=ΔFmaxxP/(P+Kdx(1+L/K'd))

T1 sequence (P0A6Y8 whole entry): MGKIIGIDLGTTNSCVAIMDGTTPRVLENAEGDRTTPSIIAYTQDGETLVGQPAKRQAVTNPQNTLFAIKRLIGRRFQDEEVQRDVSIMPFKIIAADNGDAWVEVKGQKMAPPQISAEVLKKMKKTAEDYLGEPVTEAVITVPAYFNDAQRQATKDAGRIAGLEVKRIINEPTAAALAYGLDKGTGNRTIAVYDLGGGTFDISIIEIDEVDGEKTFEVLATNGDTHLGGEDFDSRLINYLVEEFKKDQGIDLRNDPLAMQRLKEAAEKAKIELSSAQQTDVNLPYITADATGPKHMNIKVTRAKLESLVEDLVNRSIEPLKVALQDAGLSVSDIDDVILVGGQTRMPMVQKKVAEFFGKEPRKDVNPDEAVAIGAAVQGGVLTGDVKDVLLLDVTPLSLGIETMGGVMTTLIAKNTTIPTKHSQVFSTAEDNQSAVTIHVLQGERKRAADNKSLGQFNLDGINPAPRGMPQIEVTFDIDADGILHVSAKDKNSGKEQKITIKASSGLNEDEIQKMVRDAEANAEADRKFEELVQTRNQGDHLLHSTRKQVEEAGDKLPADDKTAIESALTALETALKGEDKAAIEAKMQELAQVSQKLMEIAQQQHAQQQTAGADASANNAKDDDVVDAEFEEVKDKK

“B9-23: insulin peptide identified as an immunodominant epitope of autoimmune T-cell reactivity in type 1 diabetes (SHLVEALYLVCGERG; ends and bridges not checked; UniProt P01308 33-47, looked up, fragment) [Peptide B9-23]”: the “immunodominance in autoimmune T-cell reactivity (in words)” value in assay [1] is given as “immunodominant epitope of autoimmune T-cell reactivity in type 1 diabetes”. As to LVEALYLVCGERG [Peptide B11-23], the Kd at DnaK worked out at 2200 ± 400 nM. With “SHAMAPVLYLQDK [Control peptide (sigma32 aa192-204)]”, the Kd on DnaK turned out to be 500 ± 100 nM.

With VCGERGFFYTPKT [Peptide B18-30], the Kd at DnaK amounted to 51900 ± 12800 nM.
